Source: ChEMBL document CHEMBL1134030, “Synthesis and structure-activity relationships of guanine analogues as phosphodiesterase 7 (PDE7) inhibitors” (Bioorg Med Chem Lett, 2001)
The source made the active and inactive calls.

What was measured:
[1] = target: T1, Phosphodiesterase 4 (Homo sapiens) (UniProt P27815+Q08499+Q07343+Q08493); assay: Inhibition of guinea pig Phosphodiesterase 4 at 10 uM; assay type: protein assay; details: Cavia porcellus, target entry is the homologue from another species
Phosphodiesterase 7 [2] = target: T2, Phosphodiesterase 7 (Homo sapiens, UniProt Q13946+Q9NP56); assay: Inhibition of human Phosphodiesterase 7 of HUT-78 cells at 10 uM; assay type: cell-based
[3] = target: T3, Phosphodiesterase 3 (Homo sapiens) (UniProt Q14432+Q13370); assay: Inhibition of guinea pig Phosphodiesterase 3 (PDE3) at 10 uM; assay type: protein assay; details: Cavia porcellus, target entry is the homologue from another species
Phosphodiesterase 7 [4] = target: T2, Phosphodiesterase 7; assay: Inhibition of human Phosphodiesterase 7 of HUT-78 cells; assay type: cell-based
[5] = target: T1, Phosphodiesterase 4 (Homo sapiens); assay: Inhibition of guinea pig Phosphodiesterase 4 at 10 uM (inactive); assay type: protein assay; details: Cavia porcellus, target entry is the homologue from another species
Phosphodiesterase 7 [6] = target: T2, Phosphodiesterase 7; assay: Inhibition of human Phosphodiesterase 7 of HUT-78 cells at 10 uM (inactive); assay type: cell-based
[7] = target: T3, Phosphodiesterase 3 (Homo sapiens); assay: Inhibition of guinea pig Phosphodiesterase 3 at 10 uM; assay type: protein assay; details: Cavia porcellus, target entry is the homologue from another species

T2 sequence (Q13946 whole entry, looked up): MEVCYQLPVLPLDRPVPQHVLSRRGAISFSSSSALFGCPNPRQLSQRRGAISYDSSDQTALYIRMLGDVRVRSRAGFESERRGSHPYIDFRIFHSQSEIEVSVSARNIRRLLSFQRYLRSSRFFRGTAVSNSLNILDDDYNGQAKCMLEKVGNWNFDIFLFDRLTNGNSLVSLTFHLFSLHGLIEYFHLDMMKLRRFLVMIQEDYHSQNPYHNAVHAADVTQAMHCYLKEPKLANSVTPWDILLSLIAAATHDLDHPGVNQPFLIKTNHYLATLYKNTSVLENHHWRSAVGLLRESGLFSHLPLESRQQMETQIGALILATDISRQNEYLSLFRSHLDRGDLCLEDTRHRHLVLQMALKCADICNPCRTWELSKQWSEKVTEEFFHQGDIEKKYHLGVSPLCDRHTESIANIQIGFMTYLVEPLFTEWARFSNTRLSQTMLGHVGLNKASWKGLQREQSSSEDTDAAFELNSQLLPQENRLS
T2 sequence (Q9NP56 whole entry, looked up): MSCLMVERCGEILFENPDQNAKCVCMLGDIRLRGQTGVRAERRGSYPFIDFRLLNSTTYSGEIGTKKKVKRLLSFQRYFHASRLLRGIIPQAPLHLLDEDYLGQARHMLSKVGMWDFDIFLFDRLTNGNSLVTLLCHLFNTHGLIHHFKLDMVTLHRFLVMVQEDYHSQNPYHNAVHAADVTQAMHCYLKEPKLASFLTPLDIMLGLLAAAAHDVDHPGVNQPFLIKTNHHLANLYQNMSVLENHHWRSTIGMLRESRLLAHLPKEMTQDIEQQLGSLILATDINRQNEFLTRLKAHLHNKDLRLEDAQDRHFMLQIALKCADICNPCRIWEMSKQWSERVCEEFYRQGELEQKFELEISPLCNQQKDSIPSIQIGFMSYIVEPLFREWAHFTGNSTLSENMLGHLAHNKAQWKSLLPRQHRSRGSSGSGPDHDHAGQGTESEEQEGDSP

| SMILES | inhibition [1] | inhibition (Phosphodiesterase 7 [2]) | IC50 (Phosphodiesterase 7 [4]) | other results |
| --- | --- | --- | --- | --- |
| Nc1nc(O)c2ncn(C3CCCc4ccccc43)c2n1 (centres undefined) | 7% | 4% |  |  |
| Nc1nc(O)c2nc(Br)n(C3CCCc4ccccc43)c2n1 (centres undefined) | 15% |  | 4.88 µM | inhibition [3]: 30% |
| Oc1ncnc2c1ncn2C1CCCc2ccccc21 (centres undefined) |  |  |  | inhibition [5]: inactive; inhibition (Phosphodiesterase 7 [6]): inactive |
| Nc1nc(O)c2nc(Br)n(C3CCCc4cccc(Br)c43)c2n1 (centres undefined) | 10% |  | 1.31 µM | inhibition [7]: 14% |
| Nc1nc(O)c2nc(Br)n(C3CCc4ccccc43)c2n1 (centres undefined) | 27% | 22% |  |  |
| Nc1nc(O)c2nc(Br)n(C3CCCCc4ccc(F)cc43)c2n1 (centres undefined) | 13% | 10% |  |  |

Further lines, with some results ahead:

| inhibition [1] | inhibition (Phosphodiesterase 7 [2]) | IC50 (Phosphodiesterase 7 [4]) | SMILES | other results |
| --- | --- | --- | --- | --- |
| 42% |  | 2.31 µM | Nc1nc(O)c2nc(Br)n(C3CCCc4ccc([N+](=O)[O-])cc43)c2n1 (centres undefined) | inhibition [7]: 19% |
| 20% |  | 4.22 µM | COc1ccc2c(c1)C(n1c(Br)nc3c(O)nc(N)nc31)CCC2 (centres undefined) |  |
